Experimental data as given in the Bradley open melting point set (2014).
Values joined by “and” are separate entries in the source; they are usually repeats but may differ in a detail not shown here. Equal values may be shown once.

Work on `CC(CCc1oc2c(Br)cc(Br)cc2c1-c1ccc(C)o1)=NO` yielded a melting point of 158 °C.
With `C(=C\c1nn2c(COc3ccccc3)nnc2s1)/c1ccccc1` the melting point was 142 °C.
With `CC(/C=C(\C)C#Cc1ccccc1)=N/Nc1ccc([N+](=O)[O-])cc1[N+](=O)[O-]` the melting point was 198 °C.
`CC(=O)/C(=N/Nc1ccc(Cl)cc1)C(=O)C(F)(F)F` gave a melting point of 125 °C.
For `CC(=O)/C(=N/Nc1cccc(C(F)(F)F)c1)C(=O)C(F)(F)F`, the melting point was 86 °C.
Work on `CC(=O)O[C@@H]1CCC2(C)C(CCC3C2CCC2(C)C3CC[C@]2(O)/C=C/c2ccccc2)C1` (some centres not stated) yielded a melting point of 162 °C.
For `CC(C)CC1=C/C(=C/c2ccc(-c3ccc([N+](=O)[O-])cc3)o2)C(=O)O1`, the melting point was 163 °C.
Work on `CC1(C)C2CCC1(C)C(O)/C2=C\CC(=O)O` (configuration not stated) yielded a melting point of 52 °C.
For `CC12CCC(C(=O)/C(=C\c3ccccc3[N+](=O)[O-])C1=O)C2(C)C` (configuration not stated), the melting point was 141 °C.
Work on `CCCCCCCCCCOc1ccc(/C=N/c2ccc(/C=C/C(=O)OCC)cc2)cc1` yielded a melting point of 115 °C.
With `CCOC(=O)/C(=N\Nc1ccccc1)C(=O)C(F)(F)F` the melting point was 81 °C.
In the case of `CCOC(=O)/C(C(N)=S)=C1/NN=C(c2ccc(Cl)cc2)O1`, the melting point is reported as 176 °C.
With `CN(C)c1ccc(/C=C(\C#N)c2nc(-c3cccc4ccccc34)cs2)cc1` the melting point was 129 °C.
With `CN(C)c1ccc(/C=C2\C(=O)C3CCC(C)(C2=O)C3(C)C)cc1` (configuration not stated) the melting point was 153 °C.
Work on `Cc1ccc(-c2ccc(/C=C/C(=O)c3ccco3)o2)cc1` yielded a melting point of 111 °C.
In the case of `Cc1ccc(/C=C(/C#N)c2nc(-c3ccccc3)cs2)cc1`, the melting point is reported as 79 °C.
Work on `Cc1ccc(/C=C(\C(N)=O)c2nc3ccccc3s2)cc1` yielded a melting point of 149 °C.
Work on `Fc1ccc(/C=N/n2c(S)nnc2C(F)(F)F)cc1` yielded a melting point of 212 °C.
`N#C/C(=C\c1ccc(Cl)cc1)c1nc(-c2ccccc2)cs1` gave a melting point of 104 °C.
`O=C(/C=C1\Cc2ccccc21)c1ccccc1` gave a melting point of 55 °C.
Molecule `CN(C)c1ccc([N+]([O-])=CC(=O)c2ccc(C(=O)C=[N+]([O-])c3ccc(N(C)C)cc3)cc2)cc1` has a melting point of 133 °C.
`O=[N+]([O-])c1ccc(-c2nnc3sc(/C=C/c4ccccc4)nn23)cc1` gave a melting point of 113 °C.
Molecule `CC(CCc1oc2ccc([N+](=O)[O-])cc2c1-c1ccc(C)o1)=NO` has a melting point of 161 °C.
`[C-]#[N+]c1cnn(-c2ncnc3c2cnn3C)c1/C=C/OCC` showed a melting point of 155 °C.
In the case of `COc1ccc(-c2csc(C(C#N)=Cc3cccs3)n2)cc1`, the melting point is reported as 141 °C.
Molecule `O[C@H](CS)[C@H](O)CS` (racemic) [1,4-dithio-dl-threitol] has a melting point of 42 °C.
In the case of `N[C@@H](Cc1ccc(F)c(F)c1)C(=O)O` (racemic) [3,4-difluoro-dl-phenylalanine], the melting point is reported as 233 °C.
`CC1CCC(C(C)C)C(O)C1` (racemic) [dl-menthol] showed a melting point of 29 °C.
`O[C@H]1CCCC[C@@H]1O` (relative stereo) [trans-1,2-cyclohexanediol] gave a melting point of 104 °C.
`C[C@H]1CCCC[C@@H]1C` (relative stereo) [trans-1,2-dimethylcyclohexane] gave a melting point of -88 °C.
Work on `C[C@H]1CCC[C@@H]1C` (relative stereo) [trans-1,2-dimethylcyclopentane] yielded a melting point of -118 °C.
Molecule `C[C@@H]1C[C@H]1C` (relative stereo) [trans-1,2-dimethylcyclopropane] has a melting point of -150 °C.
In the case of `CCC[C@H]1CCC[C@@H]1C` (relative stereo) [trans-1-methyl-2-propylcyclopentane], the melting point is reported as -123 °C.
In the case of `CC1(C)C[C@@H](C(=O)O)[C@@H]1N` (relative stereo) [trans-2-Amino-3,3-dimethylcyclobutane-1-carboxylic acid], the melting point is reported as 155 °C.
In the case of `C[C@H]1CCCC[C@@H]1O` (relative stereo) [trans-2-methylcyclohexanol], the melting point is reported as -21 °C.
With `NC(CO)Cc1ccccc1` (single isomer, unassigned; (-)) [(-)-2-amino-3-phenyl-1-propanol] the melting point was 92 °C.
Work on `C#CC1(O)CC[C@H]2[C@@H]3CCc4cc(O)ccc4[C@H]3CC[C@@]21C` (stereo in doubt) [(17beta)-17-Ethynylestra-1(10),2,4-triene-3,17-diol] yielded a melting point of 144 °C.
With `CC(N)C(=O)O` (stereo in doubt) [D-Alanine] the melting point was 292 °C.
With `NC(CCC(=O)O)C(=O)O` (stereo in doubt) [D-Glutamic Acid] the melting point was 201 °C.
`c1ccc(C(c2ccccc2)c2ccccc2)cc1` [1,1',1''-Methanetriyltribenzene] gave a melting point of 94 °C.
`C(#Cc1ccccc1)c1ccccc1` [1,1'-Ethyne-1,2-diyldibenzene] showed a melting point of 60 °C.
With `Oc1ccc2ccccc2c1-c1c(O)ccc2ccccc12` [1,1'-bi(2-naphthol)] the melting point was 217 °C.
`OB(O)c1cc(-c2ccccc2)cc(-c2ccccc2)c1` [1,1':3',1''-terphenyl-5'-boronic acid] gave a melting point of 294 °C.
In the case of `c1ccc(-c2ccc(-c3ccccc3)cc2)cc1` [1,1':4',1''-Terphenyl], the melting point is reported as 213 °C.
Work on `ClCC(Cl)(Cl)Cl` [1,1,1,2-Tetrachloroethane] yielded a melting point of -70 °C.
`ClCC(Cl)(Cl)Cl` [1,1,1,2-tetrachloroethane] showed a melting point of -70 °C.
`OC(C(F)(F)F)C(F)(F)F` [1,1,1,3,3,3-hexafluoro-2-propanol] gave a melting point of -3 °C.
Work on `BrC(Br)C(Br)Br` [1,1,2,2-Tetrabromoethane] yielded a melting point of 0 °C.
`ClC(Cl)C(Cl)Cl` [1,1,2,2-Tetrachloroethane] showed a melting point of -43 °C.
Work on `BrC(Br)C(Br)Br` [1,1,2,2-tetrabromoethane] yielded a melting point of 0 °C.
`O=C(O)C1(C(=O)O)CC1` [1,1-cyclopropanedicarboxylic acid] gave a melting point of 132 °C.
In the case of `CC1(C)CCCCC1` [1,1-dimethylcyclohexane], the melting point is reported as -33 °C.
`C=C(c1ccccc1)c1ccccc1` [1,1-diphenylethene] showed a melting point of 8 °C.
In the case of `CCC(c1ccccc1)c1ccccc1` [1,1-diphenylpropane], the melting point is reported as 14 °C.
With `c1ccc2c(c1)CCCC2` [1,2,3,4-Tetrahydronaphthalene] the melting point was -31 °C.
For `c1ccc2c(c1)CCCC2` [1,2,3,4-tetrahydronaphthalene(tetralin)], the melting point was -35 °C.
For `c1ccc2c(c1)CCCN2` [1,2,3,4-tetrahydroquinoline], the melting point was 14 °C.
Work on `Clc1cc(Cl)c(Cl)c(Cl)c1` [1,2,3,5-Tetrachlorobenzene] yielded a melting point of 51.5 °C.
With `ClCC(Cl)CCl` [1,2,3-trichloropropane] the melting point was -14 °C.
With `Clc1cc(Cl)c(Cl)cc1Cl` [1,2,4,5-tetrachlorobenzene] the melting point was 139 °C (2×) and 140 °C.
Work on `Cc1cc(C)c(C)cc1C` [1,2,4,5-tetramethylbenzene] yielded a melting point of 79 °C.
Molecule `Brc1ccc(Br)c(Br)c1` [1,2,4-Tribromobenzene] has a melting point of 44 °C.
In the case of `C[C@@H](Cl)CCl` [1,2-Dichloro-Propane], the melting point is reported as -100 °C.
`O=C1c2ccccc2C(=O)c2c1ccc(O)c2O` [1,2-Dihydroxy-9,10-anthraquinone] showed a melting point of 281 °C.
`c1ccc(CCc2ccccc2)cc1` [1,2-Diphenylethane] showed a melting point of 51.5 °C.
With `OC[C@@H](O)[C@H]1O[C@@H]2O[C@H](C(Cl)(Cl)Cl)O[C@@H]2[C@H]1O` [1,2-O-[(1R)-2,2,2-Trichloroethylidene]-alpha-D-glucofuranose] the melting point was 187 °C.
`Sc1ccccc1S` [1,2-benzenedithiol] showed a melting point of 23 °C.
In the case of `O=C(CCC(=O)c1ccccc1)c1ccccc1` [1,2-dibenzoylethane], the melting point is reported as 146 °C.
`CCC(Br)CBr` (configuration not stated) [1,2-dibromobutane] showed a melting point of -65 °C.
`Clc1cccc(I)c1Cl` [1,2-dichloro-3-iodobenzene] gave a melting point of 35 °C.
For `O=[N+]([O-])c1ccc(Cl)c(Cl)c1` [1,2-dichloro-4-nitrobenzene], the melting point was 41 °C.
In the case of `ClCCCl` [1,2-dichloroethane], the melting point is reported as -35 °C.
With `c1ccc(CCc2ccccc2)cc1` [1,2-diphenylethane] the melting point was 51.5 °C and 52 °C.
`CC(Cc1ccccc1)c1ccccc1` (configuration not stated) [1,2-diphenylpropane] showed a melting point of 0 °C.
For `C(=C/P(=O)(O)O)P(=O)(O)O` [1,2-ethylenediphosphonic acid], the melting point was 219 °C.
Molecule `CC(O)CO` (configuration not stated) [1,2-propanediol] [listing 1 of 2 here] has a melting point of -60 °C.
`CC(O)CO` (configuration not stated) [1,2-propanediol] [listing 2 of 2 here] showed a melting point of -60 °C.
In the case of `C=C1N(C)c2ccccc2C1(C)C` [1,3,3-trimethyl-2-methyleneindoline], the melting point is reported as -10 °C.
In the case of `C1=CC=CC=CC=C1` [1,3,5,7-cyclooctatetraene], the melting point is reported as -27 °C.
For `C=CCn1c(=O)n(CC=C)c(=O)n(CC=C)c1=O` [1,3,5-Triallyl-1,3,5-triazinane-2,4,6-trione], the melting point was 24 °C.
In the case of `O=[N+]([O-])c1c(Cl)cc(Cl)cc1Cl` [1,3,5-Trichloro-2-nitrobenzene], the melting point is reported as 72 °C.
For `O=C(O)c1cc(C(=O)O)cc(C(=O)O)c1` [1,3,5-benzenetricarboxylic acid], the melting point was 375 °C.
`O=C(c1ccccc1)c1cc(C(=O)c2ccccc2)cc(C(=O)c2ccccc2)c1` [1,3,5-tribenzoylbenzene] showed a melting point of 118 °C.
For `Brc1cc(Br)cc(Br)c1` [1,3,5-tribromobenzene] [listing 1 of 2 here], the melting point was 124 °C (2×) and 122 °C.
For `Brc1cc(Br)cc(Br)c1` [1,3,5-tribromobenzene] [listing 2 of 2 here], the melting point was 123 °C.
With `Clc1cc(Cl)cc(Cl)c1` [1,3,5-trichlorobenzene] the melting point was 65 °C (2×) and 64 °C.
For `Cc1nn(C)c(C)c1C=O` [1,3,5-trimethyl-1h-pyrazole-4-carboxaldehyde], the melting point was 82 °C.
Molecule `BrCCCBr` [1,3-Dibromopropane] has a melting point of -34 °C.
For `CC1(C)C(=O)N(Cl)C(=O)N1Cl` [1,3-Dichloro-5,5-dimethylimidazolidine-2,4-dione], the melting point was 135 °C.
In the case of `O=C(Nc1ccccc1)Nc1ccccc1` [1,3-Diphenylurea], the melting point is reported as 238 °C.
With `O=C(Oc1cccc(OC(=O)c2ccccc2)c1)c1ccccc1` [1,3-dibenzoyloxybenzene] the melting point was 118 °C.
`Brc1cccc(Br)c1` [1,3-dibromobenzene] showed a melting point of -7 °C.
`BrCCCBr` [1,3-dibromopropane] gave a melting point of -34 °C.
Molecule `Clc1cc(Cl)cc(I)c1` [1,3-dichloro-5-iodobenzene] has a melting point of 57 °C.
In the case of `CC(C)c1cccc(C(C)C)c1` [1,3-diisopropylbenzene], the melting point is reported as -63 °C.
Molecule `CCc1c(C)cccc1C` [1,3-dimethyl-2-ethylbenzene] has a melting point of -16 °C.
Molecule `O=C(CC(=O)c1ccccc1)c1ccccc1` [1,3-diphenyl-1,3-propanedione] has a melting point of 78 °C.
